Source: patent US12565680B2, “Cancer neoantigens and their utilities in cancer vaccines and TCR-based cancer immunotherapy” (THE METHODIST HOSPITAL SYSTEM, priority 2018, dated 2026)

Columns and labels:
[1] = test system: A2ESO TCR-transduced CD4^+ T cells
Description: It was hypothesized that the improvement killing ability of CD4^+ T cells due to ThPOK knockdown is procedure of T-cell reprogramming via epigenetic regulation. To distinguish how ThPOK reprogrammed CD4^+ T cells to cytolytic CD4^+ T cells, a screening of A2ESO TCR-transduced CD4^+ T cells treated by various epigenetic inhibitors was performed.

[2] = test system: A2ESO TCR-T cells
Description: Activated human T cells were transduced on day 2 and day 3 with A2ESO TCR viruses that were packaged by PG13-A2ESO TCR clone. […] To investigate the functional change of A2ESO TCR-T cells after 2-PCPA treatment, intracellular staining (ICS) was performed to check the expression of effector cytokines, targeting IL-2, IFN-γ and TNF-α. […] Another key feature of less-differentiated T cell is increased oxidative metabolism and mitochondrial respiratory capacity.

[3] = test system: MDA-MB-231 cells expressing HLA-A2 and NY-ESO-1; settings: mouse
Description: A breast cancer model was established using MDA-MB-231 cells expressing HLA-A2 and NY-ESO-1 antigen in 8 weeks old NOD-scid IL2Rγnull (NSG) mice.

[4] = test system: CAR-T cells
Description: (§1) Both CAR and luciferase were transduced into activated T cells and transfer into NSG mice that have been injected with Raji lymphoma cells.

[5] = test system: Raji lymphoma cells; settings: mouse
Description: as §1

[6] = test system: primary human T cells; settings: OKT3 activated T cells, day 12, CD45RO^− CCR7^+ CD62L^+
[7] = test system: CD8^+ T cells isolated from 136 TILs; assay: T-cell reactivity assay (ELISA): TMGs in MHC-I expressing Cos7 cells; format: cell-based, human; settings: Cos7-A1, Cos7-B8, Cos7-C7 cells
Description: To identify MHC-I neoantigens, MHC-I expressing Cos7 cells were transfected (Cos7-A1, Cos7-B8 and Cos7-C7) cells with 35 TMGs, respectively, followed by adding CD8^+ T cells isolated from 136 TILs. […] To exclude the possibility that other MHC-I and II molecules could also present neoantigens for T cell recognition, fibroblasts were generated from patient #136 tumor samples and used as APCs to express all MHC I and II molecules after IFN-γ pretreatment (FIG. 9C). The IFN-γ—pretreated fibroblasts were electroporated with in IVT mRNA of 136 mel TMGs, and then co-cultured with 136TILs.

[8] = test system: 136TIL; assay: Intracellular staining of IFN-γ after neoantigen peptide stimulation, 136TIL; format: cell-based, human
Description: Among them, MAPK9 and ANKIB1 neoantigen-specific CD4^+ T cells accounted for 14.3% and 5.2% in the total T cell population, which accounted for 58% and 21% in the total tumor-reactive CD4^+ T cell population, respectively (FIG. 11B). By contrast, other neoantigen-specific CD4^+ T cells accounted for only a small percentage of T cells in the total T cell population (FIG. 11A). Since HHAT is only one MHC-I neoantigen, it was shown that HHAT neoantigen-specific CD8^+ T cells accounted for 10.6% in the total T cell population when stimulation with HHAT peptide (FIG. 11A), which accounted for 73% in the total tumor-reactive CD8^+ T cell population (FIG. 11B).
T cells were stimulated by various in vitro methods, such as tumor cells, peptides or DNA encoding neoantigens, etc. and induced to release cytokines. Stimulated T cells were resuspended in 100 μl of Cytofix/Cytoperm solution (BD Biosciences) per well for microwell plates (or 250 μl for tubes) and incubated for 20 min at 4° C. for cell fixation. Fixed cells were permeabilized by washing twice in 1× Perm/Wash buffer (BD Biosciences). Then the fixed/permeabilized cells were thoroughly resuspended in 50 μl of 1× Perm/Wash buffer containing 1 μl of phycoerythrin (PE)-conjugated IFN-γ antibody (Thermo Fisher Scientific) and incubate at 4° C. for 30 min in the dark. After that the cells were washed twice with 1× Perm/Wash buffer and ready for flow cytometric analysis.

| Compound | cytolytic activity of CD4^+ TCR-T cells [1] | oxidative metabolism and spare respiratory capacity [2] | Tscm and Tcm percentages in A2ESO TCR-T cells ([2]; 8 uM) | frequency of A2ESO TCR-T cells with polyfunctional cytokine secretion ([2]; ICS for IL-2, IFN-γ and TNF-α) | in vitro survival effect on A2ESO TCR-T cells ([2]; IL-2 free condition) | in vitro proliferation (CFSE) ([2]; stimulation with IL-2 or 231-ESO cells) | in vivo anti-tumor function of A2ESO TCR-T cells [3] | memory phenotype of T cells after adoptive transfer ([3]; in vivo) | memory phenotype of CAR-T cells [4] | metabolic reprogramming effect on CAR-T cells [4] | in vitro survival of CAR-T cells ([4]; IL-2 free condition) | in vivo proliferation of CAR-T cells (in vivo imaging) [5] | population of Tscm [6] | activation of CD8^+ T cell response [7] | neoantigen-specific CD8^+ T cells in the total T cell population [8] [%] | share in the total tumor-reactive CD8^+ T cell population [8] [%] |
| --- | --- | --- | --- | --- | --- | --- | --- | --- | --- | --- | --- | --- | --- | --- | --- | --- |
| NC1CC1c1ccccc1 (stereo not shown) [2-PCPA] | dramatically enhanced the cytolytic activity | increased oxidative metabolism and elevated spare respiratory capacity (SRC) | increased both Tscm and Tcm percentages | slightly increased | not seen | high proliferation potential | significantly enhanced | maintained higher frequency of both Tscm and Tcm cells | similarly increased the frequencies of less-differentiated memory T cells subsets | consistent with its effect on A2ESO TCR-T cells | survived better | grew faster than control CAR-T cells | increased the population of Tscm in both CD4^+ and CD8^+ T cells | – | – | – |
| TSMLILSNLVFLEGNEVGKTYWNRI [HHAT] | – | – | – | – | – | – | – | – | – | – | – | – | – | HLA-A1 restricted neoantigen | 10.6 | 73 |
